Test results: EPA's CvTdb concentration-time database

Legend:
[1] = system: Rat; assay: concentration in plasma after dosing; conditions: 4 h; dosed: 2-Methyltetrahydrofuran; 40 mg/kg; iv; Male; Harlan Sprague Dawley
[2] = system: Rat; assay: concentration in brain after dosing; conditions: 2 h; dosed: 2-Methyltetrahydrofuran; 40 mg/kg; iv; Male; Harlan Sprague Dawley
[3] = system: Rat; assay: concentration in brain after dosing; conditions: 0.75 h; dosed: 2-Methyltetrahydrofuran; 40 mg/kg; iv; Male; Harlan Sprague Dawley
[4] = system: Rat; assay: concentration in plasma after dosing; conditions: dosed: 678-39-7, 40 mg/kg, iv, Female, Harlan Sprague-Dawley
[5] = system: Rat; assay: concentration in liver after dosing; conditions: 0.5 h; dosed: Fluorotelomer alcohol 8+2; 80 mg/kg; oral; Female; Harlan Sprague Dawley
[6] = system: Rat; assay: concentration in brain after dosing; conditions: 12 h; dosed: Fluorotelomer alcohol 8+2; 24 mg/kg; oral; Male; Harlan Sprague Dawley
[7] = system: Rat; assay: concentration in plasma after dosing; conditions: dosed: Fluorotelomer alcohol 8+2, 12 mg/kg, oral, Male, Harlan Sprague Dawley
[8] = system: Rat; assay: concentration in plasma after dosing; conditions: dosed: Fluorotelomer alcohol 8+2, 12 mg/kg, oral, Male, Harlan Sprague Dawley; remark: listed apart in the source
[9] = system: Rat; assay: concentration in kidney after dosing; conditions: 6 h; dosed: Perfluorohexanoic Acid; 80 mg/kg; oral; Female; Harlan Sprague Dawley
[10] = system: Rat; assay: concentration in plasma after dosing; conditions: dosed: Perfluorohexanoic Acid, 40 mg/kg, iv, Male, F344
[11] = system: Rat; assay: concentration in plasma after dosing; conditions: dosed: Perfluorohexanoic Acid, 40 mg/kg, oral, Male, Harlan Sprague Dawley
[12] = system: Rat; assay: concentration in plasma after dosing; conditions: dosed: Perfluorohexanoic Acid, 80 mg/kg, oral, Male, Harlan Sprague Dawley
[13] = system: rat; assay: concentration in expired air after dosing; conditions: dosed: trichloroethylene, male
[14] = system: Rat; assay: concentration in liver after dosing; conditions: 864 h; dosed: Perfluorooctane Sulfonate; 20 mg/kg; oral; Female; F344
[15] = system: Rat; assay: concentration in brain after dosing; conditions: 864 h; dosed: Perfluorooctane Sulfonate; 20 mg/kg; oral; Female; F344
[16] = system: Rat; assay: concentration in plasma after dosing; conditions: dosed: Perfluorooctane Sulfonate, 2 mg/kg, iv, Female, Harlan Sprague-Dawley
[17] = system: Rat; assay: concentration in kidney after dosing; conditions: 3360 h; dosed: Perfluorooctane Sulfonate; 20 mg/kg; oral; Male; Harlan Sprague Dawley
[18] = system: Rat; assay: concentration in kidney after dosing; conditions: 864 h; dosed: Perfluorooctane Sulfonate; 2 mg/kg; oral; Female; Harlan Sprague Dawley
[19] = system: Rat; assay: concentration in kidney after dosing; conditions: 3360 h; dosed: Perfluorooctane Sulfonate; 20 mg/kg; oral; Male; Harlan Sprague Dawley; remark: listed apart in the source
[20] = system: Rat; assay: concentration in liver after dosing; conditions: 864 h; dosed: Perfluorooctane Sulfonate; 2 mg/kg; oral; Female; Harlan Sprague Dawley
[21] = system: Rat; assay: concentration in plasma after dosing; conditions: 10 min; dosed: Gemfibrozil; 50 mg/kg; oral; Male; Sprague-Dawley
[22] = system: Rat; assay: concentration in plasma after dosing; conditions: 5 min; dosed: Gemfibrozil; 50 mg/kg; oral; Male; Sprague-Dawley
[23] = system: Rat; assay: concentration in plasma after dosing; conditions: 4 h; dosed: Gemfibrozil; 50 mg/kg; oral; Male; Sprague-Dawley
[24] = system: Rat; assay: concentration in plasma after dosing; conditions: 24 h; dosed: Gemfibrozil; 50 mg/kg; oral; Male; Sprague-Dawley

CC1CCCO1 (stereo unspecified) [2-Methyltetrahydrofuran]
Conditions | concentration in brain [ng/mL] | concentration in plasma [ng/mL]
[1] | – | 1880
[2] | 8260 | –
[3] | 15800 | –

O=C(O)CCC(F)(F)C(F)(F)C(F)(F)C(F)(F)C(F)(F)C(F)(F)C(F)(F)F [Fluorotelomer acid 7+3]
concentration in plasma [ng/mL]
Conditions | [4] | [7] | [8]
0.75 h | 1830 | 274 | 313
12 h | 863 | 110 | 197

Conditions | concentration in brain [ng/g] | concentration in liver [ng/g]
[5] | – | 2020
[6] | 98.2 | –

O=C(O)C(F)(F)C(F)(F)C(F)(F)C(F)(F)C(F)(F)F [Perfluorohexanoic Acid]
Conditions | concentration in kidney [ng/g]
[9] | 2180

Conditions | concentration in plasma [ng/mL]
[10], 0.25 h | 19100
[10], 6 h | 2380
[11], 0.5 h | 65500
[11], 9 h | 4960
[12], 5 min | 35400
[12], 9 h | 3240

ClC=C(Cl)Cl [trichloroethylene]
concentration in expired air [ng/mL], [13], inhalation, duration: 2 hr, Sprague Dawley
Conditions | 50 ppm | 500 ppm
0.1579 h | – | 1570
0.1611 h | 155 | –
0.242 h | 178 | –
0.2441 h | – | 1630
0.3273 h | – | 1620
0.3301 h | 176 | –
0.4933 h | 177 | 1730
0.6596 h | – | 1730
0.6597 h | 179 | –
0.8258 h | – | 1800
0.8264 h | 173 | –
0.9952 h | – | 1830
0.9958 h | 179 | –
1.165 h | 188 | 1850
1.328 h | – | 1740
1.332 h | 184 | –
1.497 h | – | 1840
1.498 h | 193 | –
1.661 h | 185 | –
1.664 h | – | 1820
1.825 h | 183 | –
1.83 h | – | 1910
1.991 h | 178 | –
2 h | – | 1790
2.008 h | 61.8 | –
2.016 h | – | 704
2.04 h | 35.4 | –
2.049 h | – | 532
2.071 h | 30.5 | –
2.081 h | – | 458
2.103 h | 8.92 | –
2.113 h | – | 399
2.157 h | 17.3 | –
2.161 h | – | 379
2.238 h | 13.8 | –
2.248 h | – | 359
2.493 h | 10.2 | –
2.501 h | – | 221
2.741 h | 7.87 | –
2.754 h | – | 152
2.992 h | 7.93 | –
3 h | – | 97.3
3.244 h | 5.59 | –
3.25 h | – | 82
3.495 h | 2.05 | –
3.502 h | – | 52.1
3.746 h | 0.904 | 22.1
3.994 h | 2.17 | –
3.998 h | – | 26.5
4.494 h | 1.08 | –
4.501 h | – | 25.5
4.996 h | 1.2 | –
5 h | – | 14.7
40 s | 129 | –
42 s | – | 1270
151 s | 148 | –
167 s | – | 1440
285 s | 161 | –
293 s | – | 1500

[13], 6 mg/kg, oral, Wistar
Conditions | concentration in expired air [ppm]
0.1223 h | 4.6
0.1642 h | 3.99
0.219 h | 3.8
0.2464 h | 2.7
0.4982 h | 1.12
0.7463 h | 0.349
1 h | 0.198
1.245 h | 0.161
1.496 h | 0.113
1.748 h | 0.0858
2 h | 0.0858
99 s | 0.987
289 s | 3.59

O=S(=O)([O-])C(F)(F)C(F)(F)C(F)(F)C(F)(F)C(F)(F)C(F)(F)C(F)(F)C(F)(F)F [Perfluorooctane Sulfonate]
Conditions | concentration in brain [ng/g] | concentration in kidney [ng/g] | concentration in liver [ng/g]
[14] | – | – | 71400
[15] | 2730 | – | –
[17] | – | 1110 | –
[18] | – | 2960 | –
[19] | – | 4360 | –
[20] | – | – | 9930

[16]
Conditions | concentration in plasma [ng/mL]
5 min | 5510
24 h | 3580
1200 h | 562

Cc1ccc(C)c(OCCCC(C)(C)C(=O)O)c1 [Gemfibrozil]
Conditions | concentration in plasma [ng/mL]
[21] | 110000
[22] | 7230
[23] | 5620
[24] | 846
